Data taken from ChEMBL document CHEMBL3407427, “Discovery of efficacious Pseudomonas aeruginosa-targeted siderophore-conjugated monocarbams by application of a semi-mechanistic pharmacokinetic/pharmacodynamic model” (J Med Chem, 2015).
Values after ≈ are worked out from the molar mass of the structure shown. Values belong to the compound of their own block, whether it stands above or below them.

How the values were obtained:
Pseudomonas aeruginosa [1] = test: Inhibition of Pseudomonas aeruginosa PBP3 acylation activity by BOCILLIN FL-based assay
Pseudomonas aeruginosa [2] = test: Antimicrobial activity against Pseudomonas aeruginosa PAO1 ARC545 by broth microdilution method; assay type: functional
[3] = Half life in PBS buffer in pH 7.4 by UPLC analysis; assay type: ADME
[4] = Percentage unbound in human plasma at 10 uM after 16 hrs by LC-MS/MS analysis
Pseudomonas aeruginosa [5] = test: Antimicrobial activity against MexABCDXY-deficient Pseudomonas aeruginosa PAO1 ARC546 by broth microdilution method; assay type: functional
[6] = Plasma protein binding in Wistar Han rat as percentage unbound
Klebsiella pneumoniae = test: Antimicrobial activity against Klebsiella pneumoniae by broth microdilution method; assay type: functional
Acinetobacter baumannii = test: Antimicrobial activity against Acinetobacter baumannii by broth microdilution method; assay type: functional
[7] = Half life in Wistar Han rat at 1 mg/kg, iv infusion; assay type: ADME, organism-based; set-up: dose 1 mg/kg, route intravenous; settings: in vivo
[8] = Volume of distribution at steady state in Wistar Han rat at 1 mg/kg, iv infusion; assay type: ADME, organism-based; set-up: dose 1 mg/kg, route intravenous; settings: in vivo, read-out: Vdss
Escherichia coli = test: Antimicrobial activity against Escherichia coli by broth microdilution method; assay type: functional
[9] = Clearance in Wistar Han rat at 1 mg/kg, iv infusion; assay type: ADME, organism-based; set-up: dose 1 mg/kg, route intravenous; settings: in vivo
Pseudomonas aeruginosa [10] = test: Antimicrobial activity against Pseudomonas aeruginosa by broth microdilution method; assay type: functional

Structure (SMILES): CC(C)(O/N=C(\C(=O)N[C@@H]1C(=O)N(C(=O)NS(=O)(=O)N2C[C@@H](NC(=O)NCc3cc(=O)c(O)cn3O)CC2=O)C1(C)C)c1csc(N)n1)C(=O)O
Kinact (Pseudomonas aeruginosa [1]): 8.1 ×10² /M/s
MIC (Pseudomonas aeruginosa [2]): 8 µg/mL (≈ 10.6 µM)
half-life [3]: > 150 h
fraction unbound at 16 h, 10 µM [4]: 0.23
MIC (Pseudomonas aeruginosa [5]): 1 µg/mL (≈ 1.32 µM)

Structure (SMILES): C[C@H]1[C@H](NC(=O)/C(=N\OC(C)(C)C(=O)O)c2csc(N)n2)C(=O)N1S(=O)(=O)O [AZTREONAM]
MIC (Pseudomonas aeruginosa [2]): 4 µg/mL (≈ 9.19 µM)
MIC90 (Klebsiella pneumoniae): > 512 µg/mL
MIC90 (Acinetobacter baumannii): > 512 µg/mL
MIC90 (Escherichia coli): > 512 µg/mL
MIC90 (Pseudomonas aeruginosa [10]): 1020 µg/mL (≈ 2350 µM)
MIC (Pseudomonas aeruginosa [5]): 0.25 µg/mL (≈ 0.574 µM)

Structure (SMILES): C[C@H]1[C@H](NC(=O)/C(=N\OC(C)(C)C(=O)O)c2csc(N)n2)C(=O)N1C(=O)NS(=O)(=O)N1C[C@@H](NC(=O)NCc2cc(=O)c(O)c[nH]2)CC1=O
Kinact (Pseudomonas aeruginosa [1]): 2.4 ×10⁴ /M/s
MIC (Pseudomonas aeruginosa [2]): 16 µg/mL (≈ 22 µM)
half-life [3]: 30 h
fraction unbound at 16 h, 10 µM [4]: 0.26
MIC (Pseudomonas aeruginosa [5]): 1 µg/mL (≈ 1.38 µM)

Structure (SMILES): C[C@H]1[C@H](NC(=O)/C(=N\OC(C)(C)C(=O)O)c2csc(N)n2)C(=O)N1C(=O)NS(=O)(=O)N1CCN(C(=O)c2cc(=O)c(O)c[nH]2)CC1
Kinact (Pseudomonas aeruginosa [1]): 2.4 ×10⁴ /M/s
MIC (Pseudomonas aeruginosa [2]): 8 µg/mL (≈ 11.7 µM)
half-life [3]: > 150 h
fraction unbound at 16 h, 10 µM [4]: 0.26
MIC (Pseudomonas aeruginosa [5]): < 0.06 µg/mL

Structure (SMILES): C[C@H]1[C@H](NC(=O)/C(=N\OC(C)(C)C(=O)O)c2csc(N)n2)C(=O)N1C(=O)NS(=O)(=O)N1N=C(c2cc(=O)c(O)c[nH]2)NCC1=O
Kinact (Pseudomonas aeruginosa [1]): 3.8 ×10³ /M/s
MIC (Pseudomonas aeruginosa [2]): 16 µg/mL (≈ 23.9 µM)
half-life [3]: 40 h
MIC (Pseudomonas aeruginosa [5]): 2 µg/mL (≈ 2.99 µM)

Structure (SMILES): C[C@H]1[C@H](NC(=O)/C(=N\OC(C)(C)C(=O)O)c2csc(N)n2)C(=O)N1C(=O)NS(=O)(=O)N1C[C@@H](NCc2cc(=O)c(O)c[nH]2)CC1=O
Kinact (Pseudomonas aeruginosa [1]): 5.7 ×10⁴ /M/s
MIC (Pseudomonas aeruginosa [2]): 8 µg/mL (≈ 11.7 µM)
half-life [3]: 48 h
fraction unbound at 16 h, 10 µM [4]: 0.4
MIC (Pseudomonas aeruginosa [5]): 0.5 µg/mL (≈ 0.731 µM)

Structure (SMILES): C[C@H]1[C@H](NC(=O)/C(=N\OC(C)(C)C(=O)O)c2csc(N)n2)C(=O)N1C(=O)NS(=O)(=O)Nc1cc(=O)c(O)c[nH]1
Kinact (Pseudomonas aeruginosa [1]): 1.3 ×10⁴ /M/s
MIC (Pseudomonas aeruginosa [2]): 16 µg/mL (≈ 27.3 µM)
half-life [3]: 103 h
fraction unbound at 16 h, 10 µM [4]: 0.23
MIC (Pseudomonas aeruginosa [5]): 1 µg/mL (≈ 1.7 µM)

Stronger by MIC (Pseudomonas aeruginosa [2]), values ahead:

Kinact (Pseudomonas aeruginosa [1]): 1.5 ×10⁵ /M/s
MIC (Pseudomonas aeruginosa [2]): 1 µg/mL (≈ 1.43 µM)
fraction unbound [6]: 0.06
MIC90 (Klebsiella pneumoniae): 32 µg/mL (≈ 45.9 µM)
MIC90 (Acinetobacter baumannii): > 64 µg/mL
half-life [7]: 0.34 h
Vd [8]: 0.44 L/kg
MIC90 (Escherichia coli): 32 µg/mL (≈ 45.9 µM)
clearance [9]: 16 mL/min/kg
MIC90 (Pseudomonas aeruginosa [10]): 2 µg/mL (≈ 2.87 µM)
half-life [3]: > 150 h
fraction unbound at 16 h, 10 µM [4]: 0.24
MIC (Pseudomonas aeruginosa [5]): < 0.06 µg/mL
Structure (SMILES): C[C@H]1[C@H](NC(=O)/C(=N\OC(C)(C)C(=O)O)c2csc(N)n2)C(=O)N1C(=O)NS(=O)(=O)N1C[C@@H](NC(=O)c2cc(=O)c(O)c[nH]2)CC1=O

Kinact (Pseudomonas aeruginosa [1]): 1.9 ×10⁴ /M/s
MIC (Pseudomonas aeruginosa [2]): 1 µg/mL (≈ 1.32 µM)
half-life [3]: > 150 h
fraction unbound at 16 h, 10 µM [4]: 0.26
MIC (Pseudomonas aeruginosa [5]): 0.25 µg/mL (≈ 0.33 µM)
Structure (SMILES): C[C@H]1[C@H](NC(=O)/C(=N\OC(C)(C)C(=O)O)c2csc(N)n2)C(=O)N1C(=O)NS(=O)(=O)N1C[C@@H](NC(=O)N(C)Cc2cc(=O)c(O)cn2O)CC1=O

Kinact (Pseudomonas aeruginosa [1]): 3 ×10⁵ /M/s
MIC (Pseudomonas aeruginosa [2]): 0.5 µg/mL (≈ 0.701 µM)
half-life [3]: > 150 h
fraction unbound at 16 h, 10 µM [4]: 0.08
MIC (Pseudomonas aeruginosa [5]): < 0.06 µg/mL
Structure (SMILES): C[C@H]1[C@H](NC(=O)/C(=N\OC(C)(C)C(=O)O)c2csc(N)n2)C(=O)N1C(=O)NS(=O)(=O)N1C[C@@H](NC(=O)c2cc(=O)c(O)cn2O)CC1=O

Kinact (Pseudomonas aeruginosa [1]): 3.1 ×10⁴ /M/s
MIC (Pseudomonas aeruginosa [2]): 0.5 µg/mL (≈ 0.661 µM)
half-life [3]: 19 h
fraction unbound at 16 h, 10 µM [4]: 0.27
MIC (Pseudomonas aeruginosa [5]): 0.25 µg/mL (≈ 0.33 µM)
Structure (SMILES): C[C@H]1[C@H](NC(=O)/C(=N\OC(C)(C)C(=O)O)c2csc(N)n2)C(=O)N1C(=O)NS(=O)(=O)N1C[C@@H](N(C)C(=O)NCc2cc(=O)c(O)cn2O)CC1=O

Kinact (Pseudomonas aeruginosa [1]): 2 ×10⁵ /M/s
MIC (Pseudomonas aeruginosa [2]): 0.25 µg/mL (≈ 0.302 µM)
half-life [3]: > 150 h
fraction unbound at 16 h, 10 µM [4]: 0.43
MIC (Pseudomonas aeruginosa [5]): < 0.06 µg/mL
Structure (SMILES): C[C@H]1[C@H](NC(=O)/C(=N\OC(C)(C)C(=O)O)c2csc(N)n2)C(=O)N1C(=O)NS(=O)(=O)N1C[C@@H](NC(=O)[C@H](CC(=O)O)NC(=O)c2cc(=O)c(O)cn2O)CC1=O

Kinact (Pseudomonas aeruginosa [1]): 7.2 ×10⁴ /M/s
MIC (Pseudomonas aeruginosa [2]): 0.25 µg/mL (≈ 0.343 µM)
fraction unbound [6]: 0.04
MIC90 (Klebsiella pneumoniae): 8 µg/mL (≈ 11 µM)
MIC90 (Acinetobacter baumannii): > 128 µg/mL
half-life [7]: 0.39 h
Vd [8]: 0.28 L/kg
MIC90 (Escherichia coli): 16 µg/mL (≈ 22 µM)
clearance [9]: 9 mL/min/kg
MIC90 (Pseudomonas aeruginosa [10]): 0.25 µg/mL (≈ 0.343 µM)
half-life [3]: 138 h
fraction unbound at 16 h, 10 µM [4]: 0.04
MIC (Pseudomonas aeruginosa [5]): < 0.06 µg/mL
Structure (SMILES): C[C@H]1[C@H](NC(=O)/C(=N\OC(C)(C)C(=O)O)c2csc(N)n2)C(=O)N1C(=O)NS(=O)(=O)n1nc(-c2cc(=O)c(O)c[nH]2)n(C[C@@H](O)CO)c1=O
